These results are taken from patent US4454122A, “Adenosine derivatives of anti-inflammatory and analgesic activity, and therapeutic compositions which contain them as their active principle” (Bioresearch S.r.l., priority 1982, dated 1984).

The ED50 is the dose at which the effect has come halfway, by size or by number of responders. As usually defined, the LD50 is the dose expected to kill half of the subjects tested. A high value points to a less toxic substance.

For series [1], the system named is experimental edema in the rat by carragen. Kind of series: experimental edema in the rat by carragen (Winter method), percentage protection. It is filed as in vivo. Conditions: for inhibition in vivo at 85 mg/kg: 85 mg/kg orally; for inhibition in vivo at 80 mg/kg: 80 mg/kg orally.
Series [2] shares this test system. The series is described as above. Type of series: in vivo. The method, then: ^ (a) signifies that the product was administered intramuscularly.
The test system of the next series is rat. The note with it: Martelli A., 1973; cited from earlier work.
Series [3] has as its system pleuritis induced in the rat by carragen. Put plainly: pleuritis induced in the rat by carragen (Velo method). It is filed as in vivo.
A further series has as its system gastro-intestinal system. Kind of series: secondary effects on the gastro-intestinal system at ED50 doses (gastric lesions). It is filed as in vivo, rat. The note with it: at ED50 doses. The method, then: In the same test, the ED50 of indomethacine is 9 mg/kg.
Series [4] in a line: lethal dose in the rat and therapeutical index. The note with it: in vivo; edema test in the rat; read-out: therapeutical index (TI).
The subject of series [5] is stretching by phenylquinone. Kind of series: stretching test by phenylquinone (analgesic activity). Conditions: im; intramuscularly. It is filed as in vivo.
For a further series, the system named is mouse. Put plainly: hot plate test on the mouse according to Roberts (analgesic activity). It is filed as in vivo. On the procedure: C--The analgesic activity of the products was tested by two tests considered very significant.
In the hot plate test on the mouse according to Roberts (Roberts E. Simonsen D.G. (1966) Biochem. Pharmac. 15, 1875-) the MTA gives a protection of 50% with an oral dose of 37 mg/kg. An approximately equivalent protection of 58% is obtained with 100 mg/kg of amidopyrine administered orally.

Series [6] can be described thus: acute toxicity, DL50 in the mouse. The note with it: in vivo. The text has this: The compounds of the present invention are practically free from acute toxicity when administered orally. They are practically free from toxicity at therapeutic doses for any method of administration. The following values are obtained for MTA and MTA sulphoxide: […]
Series [7] relates to platelet aggregation induced by arachidonic acid. Put plainly: in vitro platelet aggregation induced by arachidonic acid (AA). It is filed as cell-based. Conditions: MTA 5×10^-4 M or PGI2 5×10^-9 M, each alone; FIG. 3. The method, then:
(2) "in vitro" tests on platelet aggregation induced by arachidonic acid (AA);
Blood was withdrawn without stasis, and an anticoagulant (3.8% sodium citrate) was added to give a blood:citrate ratio of 9:1. Plasma rich in platelets and plasma poor in platelets were obtained by centrifuging at ambient temperature.
The platelet aggregation was estimated using the Born & Cross method (G. V. R. Born and M. J. Cross, J. Physiol., Lond. 168, 178, 1963) on the plasma fraction rich in platelets.
The aggregating agents were used in the following concentrations:
ADP (Sigma) 1 μM; collagen (Horn) 5 μml; arachidonic acid 4×10^-4 M.
The capacity of MTA to increase the inhibiting effect of prostacyclin (PGI2) in aggregation induced by AA was also investigated. In FIG. 3, curve 1 relates to the controls, curve 2 to MTA at a concentration of 5×10^-4 M, curve 3 to PGI2 at a concentration of 5×10^-9 M, and curve 4 to a mixture consisting of 5×10^-4 M MTA and 5×10^-9 M PGI2.

Series [8] relates to fever induced in the rat by beer yeast. Kind of series: fever induced in the rat by beer yeast (antipyretic activity). It is filed as in vivo. The note with it: 200 mg/kg, orally. On the procedure:
This was measured for the new products by means of fever induced in the rat by beer yeast (Winder C. V. et al (1961) J. Pharmacol. Exp. Ther. 133, 117).

Where [9] appears, read: po, rat, read-out: Percent protection calculated on edema development.
[10] abbreviates: intramuscular, table 1 and all the tests carried out.

Consider `CC(C)CSC[C@H]1O[C@@H](n2cnc3c(N)ncnc32)[C@H](O)[C@@H]1O`, for which, in series [1] (setting [9]), the inhibition in vivo at 85 mg/kg was 62%.

For `CC(C)SC[C@H]1O[C@@H](n2cnc3c(N)ncnc32)[C@H](O)[C@@H]1O`, the inhibition in vivo at 80 mg/kg in [1] (setting [9]) was 45%.

Turning to `CCC(C)SC[C@H]1O[C@@H](n2cnc3c(N)ncnc32)[C@H](O)[C@@H]1O` (stereo partly drawn), the inhibition in vivo at 85 mg/kg in series [1] (setting [9]) is 35%.

On to `COc1ccc2c(c1)c(CC(=O)O)c(C)n2C(=O)c1ccc(Cl)cc1` [Indomethacine, reference compound], for which the inhibition in vivo at 9 mg/kg in [2] (Rattus norvegicus, po, read-out: Percent protection calculated on edema development) was 50%. Besides, the 50% effective dose (ED50) in series [1] (Rattus norvegicus, po, read-out: ED50 (edema test)) amounted to 9 mg/kg. For the same compound, in the series with rat, the “LD in the rat” value is 12 mg/kg. Further, the “protection, compared with that of MTA (in words)” value in series [3] (10 mg/kg, compared with MTA 75 mg/kg oral) is listed as “comparable protection”. The “secondary effect on the gastro-intestinal system / gastric lesions” value with gastro-intestinal system is given as “serious gastric lesions”. In addition, in [4], the selectivity ratio is 1.3.

`C[S+]([O-])C[C@H]1O[C@@H](n2cnc3c(N)ncnc32)[C@H](O)[C@@H]1O` (stereo partly drawn) [MTA sulphoxide, methylthioadenosine sulphoxide] came in with an ED50 in series [5] of 10 mg/kg. The inhibition in vivo at 8.6 mg/kg in [2] (im, 8.6 mg/kg intramuscularly, rat, read-out: Percent protection calculated on edema development) was 50%. In addition, the “activity by intramuscular administration (in words)” value in [2] (setting [10]) is listed as “greater activity”; in series [1] (setting [10]), “particularly active”. Further, the inhibition in vivo at 156 mg/kg in [1] (po, 156 mg/kg orally, rat, read-out: Percent protection calculated on edema development) is 50%. Besides, in series [3] (80 mg/kg, intramuscularly, rat), the “protection calculated on the total number of cells present in the exudate” value is listed as 76.4%. In addition, in series [3] (80 mg/kg, intramuscularly, rat), the “protection calculated on the volume of the exudate” value is given as 75.8%. Besides, the “protection in the hot plate test” value in the series with mouse (20 mg/kg, intramuscularly) came to 50%; in the series on mouse (100 mg/kg, oral), 50%. Besides, the LD50 in [6] (iv, intravenously) is 400 mg/kg; in series [6] (po, orally) it was over 2000 mg/kg.

On to `CCCCC[C@H](O)/C=C/[C@@H]1[C@H]2C/C(=C/CCCC(=O)O)O[C@H]2C[C@H]1O` [PGI2, reference compound], for which, in series [7], the “antiaggregation action alone, AA induced (in words)” value is given as “ineffective”.

With `Cc1c(N(C)C)c(=O)n(-c2ccccc2)n1C` [amidopyrine, reference compound], the temperature reduction in series [8] was 4.69%. In addition, in the series on mouse (100 mg/kg, oral), the “protection in the hot plate test” value is 58%.

Regarding `CCCSC[C@H]1O[C@@H](n2cnc3c(N)ncnc32)[C@H](O)[C@@H]1O` [n = 0 R = (CH2)2CH3, R1 = R2 = H], in series [1] (setting [9]), the inhibition in vivo at 80 mg/kg is 53%.

`CCCCSC[C@H]1O[C@@H](n2cnc3c(N)ncnc32)[C@H](O)[C@@H]1O` [n = 0 R = (CH2)3CH3, R1 = R2 = H]: the inhibition in vivo at 85 mg/kg in series [1] (setting [9]) is 39%.

In the case of `CCCCCSC[C@H]1O[C@@H](n2cnc3c(N)ncnc32)[C@H](O)[C@@H]1O` [n = 0 R = (CH2)4CH3, R1 = R2 = H], the inhibition in vivo at 90 mg/kg in series [1] (po, 90 mg/kg orally, rat, read-out: Percent protection calculated on edema development) is 25%.

For `CCCCCCCSC[C@H]1O[C@@H](n2cnc3c(N)ncnc32)[C@H](O)[C@@H]1O` [n = 0 R = (CH2)6CH3, R1 = R2 = H], the inhibition in vivo at 95 mg/kg in series [1] (po, 95 mg/kg orally, rat, read-out: Percent protection calculated on edema development) is 20%.

As for `CCCCCCCCSC[C@H]1O[C@@H](n2cnc3c(N)ncnc32)[C@H](O)[C@@H]1O` [n = 0 R = (CH2)7CH3, R1 = R2 = H], the inhibition in vivo at 100 mg/kg in series [1] (po, 100 mg/kg orally, rat, read-out: Percent protection calculated on edema development) is 47%.

Turning to `CCCCCCCCCCSC[C@H]1O[C@@H](n2cnc3c(N)ncnc32)[C@H](O)[C@@H]1O` [n = 0 R = (CH2)9CH3, R1 = R2 = H], the inhibition in vivo at 106 mg/kg in series [1] (po, 106 mg/kg orally, rat, read-out: Percent protection calculated on edema development) is 33%.

As to `CCCCCCCCCCCCSC[C@H]1O[C@@H](n2cnc3c(N)ncnc32)[C@H](O)[C@@H]1O` [n = 0 R = (CH2)11CH3, R1 = R2 =], in [1] (po, 112 mg/kg orally, rat, read-out: Percent protection calculated on edema development), the inhibition in vivo at 112 mg/kg is 10%.

Take `Nc1ncnc2c1ncn2[C@@H]1O[C@H](CSCc2ccccc2)[C@@H](O)[C@H]1O` [n = 0 R = CH2C6 H5, R1 = R2 = H]: the inhibition in vivo at 47 mg/kg in [1] (po, 47 mg/kg orally, rat, read-out: Percent protection calculated on edema development) was 10%.

Consider `CCSC[C@H]1O[C@@H](n2cnc3c(N)ncnc32)[C@H](O)[C@@H]1O` [n = 0 R = CH2CH3, R1 = R2 = H, 5'-deoxy-5'-ethylthioadenosine], for which the inhibition in vivo at 80 mg/kg in series [1] (setting [9]) was 44%.

Take `CSC[C@H]1O[C@@H](n2cnc3c(N)ncnc32)[C@@H]2OC(C)(C)O[C@@H]21` [n = 0 R = CH3, R1 = H, R2R1 = isopropyl, 5'-deoxy-2',3'-isopropylidene-5'-methylthioadenosine]: the inhibition in vivo at 91 mg/kg in series [1] (po, 91 mg/kg orally, rat, read-out: Percent protection calculated on edema development) is 20%.

`CSC[C@H]1O[C@@H](n2cnc3c(NC(=O)c4ccccc4)ncnc32)[C@H](OC(=O)c2ccccc2)[C@@H]1OC(=O)c1ccccc1` [n = 0 R = CH3, R1 = R2 = COC6 H5]: the inhibition in vivo at 164 mg/kg in [1] (po, 164 mg/kg orally, rat, read-out: Percent protection calculated on edema development) is 10%.

On to `CSC[C@H]1O[C@@H](n2cnc3c(NC(C)=O)ncnc32)[C@H](OC(C)=O)[C@@H]1OC(C)=O` [n = 0 R = CH3, R1 = R2 = COCH3, N^6,2',3'-triacetyl-5'-deoxy-5'-thioadenosine], for which the inhibition in vivo at 114 mg/kg in series [1] (po, 114 mg/kg orally, rat, read-out: Percent protection calculated on edema development) was 47%.

As to `CSC[C@H]1O[C@@H](n2cnc3c(NS(=O)(=O)c4ccc(C)cc4)ncnc32)[C@H](OS(=O)(=O)c2ccc(C)cc2)[C@@H]1OS(=O)(=O)c1ccc(C)cc1` [n = 0 R = CH3, R1 = R2 = tosyl], in series [1] (po, 204 mg/kg orally, rat, read-out: Percent protection calculated on edema development), the inhibition in vivo at 204 mg/kg is 15%.
